Test systems include OVCAR-5; SK-MEL-28; MCF7; A549; SW-620; NCI-H23; HCT-116; RPMI-8226; M14; SR; KM12; TK-10; SK-MEL-2; MDA-MB-231; CCRF-CEM; A498; SNB-19; HOP-92; SF-539; OVCAR-8.
Test in all cases: DTP human tumour cell line panel, 48 h

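Assay format: 96-well plates, 48-hour exposure. GI50: concentration for 50% inhibition of growth.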 Active and inactive are the calls of the source. No stated cut-off is given here; in the data, active = GI50 up to about 1.1 µM and inactive = higher.

In general, GI50 refers to the concentration at which growth is held to half of that of the control. In the case of `OCC1OC(NC(=S)NCCC(F)(F)C(F)(F)C(F)(F)C(F)(F)C(F)(F)C(F)(F)F)C(O)C(O)C1O` (stereo not given), the GI50 is > 100 µM (inactive) in the assay with OVCAR-5; 72.9 µM (inactive) with SK-MEL-28; > 100 µM (inactive) in the assay on MCF7; > 100 µM (inactive) with A549; > 100 µM (inactive) with SW-620; > 100 µM (inactive) with NCI-H23. For the same molecule, the GI50 is 80.4 µM (inactive) with HCT-116; > 100 µM (inactive) in the assay with RPMI-8226; 56.4 µM (inactive) with M14; > 100 µM (inactive) with SR; > 100 µM (inactive) with KM12; > 100 µM (inactive) in the assay with TK-10. In addition, the GI50 in the assay on SK-MEL-2 is > 100 µM (inactive); with MDA-MB-231 it was > 100 µM (inactive); in the assay on CCRF-CEM, 38.3 µM (inactive); in the assay on A498, 18.5 µM (inactive); in the assay on SNB-19 it was 69.8 µM (inactive); with HOP-92, 29.2 µM (inactive). Also, in the assay on SF-539, the GI50 is > 100 µM (inactive).

Regarding `O=C1C=CC(=O)N1n1c(Cc2ccccc2)n[nH]c1=O`, the GI50 in the assay with OVCAR-5, in the assay with SK-MEL-28, in the assay with MCF7, in the assay on A549, with SW-620 and in the assay with NCI-H23 was > 100 µM (inactive) each time. For the same molecule, the GI50 in the assay with OVCAR-8, in the assay on HCT-116, in the assay on RPMI-8226, in the assay on SR, in the assay with KM12 and in the assay on TK-10 was > 100 µM (inactive) throughout. Also, the GI50 in the assay on SK-MEL-2, with MDA-MB-231, with CCRF-CEM, with A498, in the assay on SNB-19 and in the assay with HOP-92 was > 100 µM (inactive) each time. In addition, the GI50 with SF-539 was > 100 µM (inactive).

For `COc1ccc(NC(=S)N/N=C/c2c(C)n(C)n(-c3ccccc3)c2=O)cc1`, the GI50 in the assay with SK-MEL-28 is 64.1 µM (inactive); with MCF7 it was 42.7 µM (inactive); in the assay with SW-620, > 100 µM (inactive); in the assay on NCI-H23, 31.5 µM (inactive); in the assay on OVCAR-8, 20.7 µM (inactive); in the assay with HCT-116, 77.6 µM (inactive). Also, the GI50 with RPMI-8226 was > 100 µM (inactive); with M14 it was > 100 µM (inactive); in the assay on SR it was 78.5 µM (inactive); in the assay with KM12, > 100 µM (inactive); in the assay on TK-10, 53.3 µM (inactive); with SK-MEL-2, 32.1 µM (inactive). Further, the GI50 was 17.5 µM (inactive) with MDA-MB-231; > 100 µM (inactive) in the assay with CCRF-CEM; 17.2 µM (inactive) in the assay on A498; 20.5 µM (inactive) in the assay on SNB-19; 22.2 µM (inactive) with HOP-92; 21.3 µM (inactive) in the assay with SF-539.

As for `COc1ccc2c(cnc3c4cc(OC)c(OC)cc4ccc23)c1`, the GI50 in the assay on OVCAR-5, with SK-MEL-28, in the assay on MCF7, in the assay with A549, in the assay with SW-620 and in the assay on NCI-H23 was > 100 µM (inactive) throughout. For the same molecule, the GI50 with OVCAR-8, in the assay on HCT-116, in the assay with M14, in the assay on SR, in the assay with KM12 and with TK-10 was > 100 µM (inactive) throughout. Further, the GI50 in the assay on SK-MEL-2, in the assay with MDA-MB-231, in the assay on CCRF-CEM, with A498, in the assay with SNB-19 and in the assay on HOP-92 was > 100 µM (inactive) each time. The GI50 with SF-539 was > 100 µM (inactive).

As to `CCN1C(=S)n2cccc2C1CC(=O)c1ccc(Cl)cc1` (stereo not given), the GI50 is 87.9 µM (inactive) in the assay on OVCAR-5; 54.1 µM (inactive) in the assay with SK-MEL-28; 24.8 µM (inactive) in the assay with MCF7; 15.3 µM (inactive) in the assay on A549; 42.9 µM (inactive) in the assay with SW-620; 13 µM (inactive) in the assay with NCI-H23. The GI50 in the assay on OVCAR-8 is > 100 µM (inactive); with HCT-116 it was 33 µM (inactive); with RPMI-8226, 15.7 µM (inactive); in the assay on M14, 89.9 µM (inactive); in the assay on SR, 57 µM (inactive); in the assay with KM12, > 100 µM (inactive). For the same molecule, the GI50 is 95.9 µM (inactive) in the assay with TK-10; 58.2 µM (inactive) in the assay on SK-MEL-2; 59.6 µM (inactive) with MDA-MB-231; 43.5 µM (inactive) in the assay on A498; 75.3 µM (inactive) with SNB-19; > 100 µM (inactive) with HOP-92.

As to `O=c1oc2c(Br)c(O)c(Br)cc2c2ccccc12`, the GI50 in the assay on OVCAR-5 is 35 µM (inactive); in the assay on SK-MEL-28 it was 35.3 µM (inactive); in the assay on MCF7, 16.3 µM (inactive); in the assay on A549, 32.5 µM (inactive); in the assay with SW-620 it was 36.6 µM (inactive); in the assay with NCI-H23, 15.6 µM (inactive). Also, the GI50 with OVCAR-8 was 33.6 µM (inactive); with HCT-116, 29.4 µM (inactive); in the assay with RPMI-8226 it was 27 µM (inactive); with M14, 31.9 µM (inactive); in the assay with SR, 23.2 µM (inactive); in the assay on TK-10 it was 34.9 µM (inactive). Further, the GI50 is 28.2 µM (inactive) with SK-MEL-2; 16.9 µM (inactive) with MDA-MB-231; 25.6 µM (inactive) with CCRF-CEM; 25.8 µM (inactive) in the assay on A498; 30.3 µM (inactive) in the assay with SNB-19; 22.5 µM (inactive) in the assay with HOP-92. The GI50 with SF-539 was 23.9 µM (inactive).

For `COc1ccc(OC)c2sc(N3C(=O)/C(=C/c4ccccc4S)N=C3c3ccccc3)nc12`, the GI50 in the assay on OVCAR-5 was > 100 µM (inactive); with SK-MEL-28 it was > 100 µM (inactive); in the assay on MCF7 it was 18.7 µM (inactive); with A549, 42.8 µM (inactive); with SW-620, 39.2 µM (inactive); in the assay with OVCAR-8 it was 47.2 µM (inactive). For the same molecule, the GI50 is 28.2 µM (inactive) with HCT-116; 22.6 µM (inactive) with RPMI-8226; 36.5 µM (inactive) with M14; 14.4 µM (inactive) in the assay with SR; 41 µM (inactive) in the assay on KM12; > 100 µM (inactive) in the assay on TK-10. Also, the GI50 was 25.8 µM (inactive) in the assay with SK-MEL-2; > 100 µM (inactive) with MDA-MB-231; 22.3 µM (inactive) in the assay with CCRF-CEM; 55.5 µM (inactive) with A498; 69.2 µM (inactive) in the assay on SNB-19; > 100 µM (inactive) with HOP-92. Also, the GI50 in the assay on SF-539 was 28.6 µM (inactive).

For `COc1ccc(/C=C2/C(=O)N(C(=O)c3ccccc3O)N=C2C)cc1OC`, the GI50 in the assay on OVCAR-5 was 3.9 µM (inactive); with SK-MEL-28, 23.9 µM (inactive); with MCF7 it was 0.361 µM (active); in the assay on A549, 0.33 µM (active); in the assay on SW-620, 3.27 µM (inactive); in the assay on NCI-H23, 0.248 µM (active). In addition, the GI50 in the assay with OVCAR-8 is 0.568 µM (active); with HCT-116, 0.275 µM (active); in the assay with RPMI-8226 it was 1.72 µM (inactive); in the assay on M14 it was 0.927 µM (active); with SR, 0.644 µM (active); in the assay with KM12, 0.516 µM (active). The GI50 was 10.8 µM (inactive) with TK-10; 0.605 µM (active) in the assay with SK-MEL-2; > 100 µM (inactive) in the assay with MDA-MB-231; 0.337 µM (active) with CCRF-CEM; 0.121 µM (active) in the assay with A498; 0.326 µM (active) with HOP-92. Besides, the 50% growth inhibitory concentration (GI50) in the assay on SF-539 is 0.241 µM (active).

Consider `CSc1nc2c(c(=O)n1C)N=C(c1ccc([N+](=O)[O-])cc1)CC(c1ccccc1)N2` (stereo not given), for which the GI50 is > 100 µM (inactive) with OVCAR-5; > 100 µM (inactive) in the assay on SK-MEL-28; 49 µM (inactive) in the assay on MCF7; > 100 µM (inactive) in the assay on A549; > 100 µM (inactive) with SW-620; 99.8 µM (inactive) with NCI-H23. Further, the GI50 with OVCAR-8 was > 100 µM (inactive); with HCT-116, > 100 µM (inactive); with RPMI-8226 it was > 100 µM (inactive); in the assay on M14, > 100 µM (inactive); in the assay with SR, > 100 µM (inactive); in the assay with KM12, 84.3 µM (inactive). The GI50 with SK-MEL-2 was > 100 µM (inactive); in the assay with MDA-MB-231, 36.8 µM (inactive); in the assay with CCRF-CEM it was 72.4 µM (inactive); with A498, > 100 µM (inactive); in the assay on SNB-19, > 100 µM (inactive); in the assay on HOP-92 it was > 100 µM (inactive). Also, the GI50 in the assay on SF-539 is > 100 µM (inactive).

For the molecule `CC(NC(=O)C(Cc1ccc(OC(=O)c2ccccc2)cc1)NC(=O)OC(C)(C)C)C(=O)NCC(=O)NC(Cc1ccccc1)C(=O)NN` (stereo not given), the GI50 with OVCAR-5 was > 100 µM (inactive); with SK-MEL-28, 35.7 µM (inactive); in the assay with MCF7, 40.9 µM (inactive); in the assay on A549, > 100 µM (inactive); in the assay on SW-620, 29.3 µM (inactive); with NCI-H23, 74.5 µM (inactive). In addition, the GI50 was 65 µM (inactive) in the assay with OVCAR-8; 43.1 µM (inactive) with HCT-116; 15.8 µM (inactive) with RPMI-8226; 35.1 µM (inactive) in the assay with M14; 13.6 µM (inactive) in the assay on SR; 80.7 µM (inactive) in the assay on KM12. Further, the GI50 was 70.3 µM (inactive) in the assay on TK-10; 37.9 µM (inactive) in the assay with MDA-MB-231; 15 µM (inactive) in the assay with A498; 45.6 µM (inactive) with SNB-19; 98.2 µM (inactive) with HOP-92; > 100 µM (inactive) with SF-539.

For the molecule `Oc1c(Br)cc(Br)cc1CN(Cc1cc(Br)cc(Br)c1O)C1CCCCC1`, the GI50 was 37.6 µM (inactive) in the assay on OVCAR-5; 48.1 µM (inactive) in the assay with SK-MEL-28; 25.5 µM (inactive) in the assay with MCF7; 30.9 µM (inactive) in the assay on A549; 29.7 µM (inactive) in the assay on SW-620; 23.2 µM (inactive) with NCI-H23. For the same molecule, the GI50 in the assay with OVCAR-8 is 31.1 µM (inactive); in the assay with HCT-116, 33.4 µM (inactive); in the assay with RPMI-8226 it was 30.2 µM (inactive); in the assay with M14, 34.3 µM (inactive); in the assay with SR, 32.4 µM (inactive); in the assay with KM12, 31.9 µM (inactive). Besides, the GI50 in the assay with TK-10 was 26.4 µM (inactive); in the assay with SK-MEL-2, 20.2 µM (inactive); in the assay on MDA-MB-231 it was 26.4 µM (inactive); in the assay on A498, 26.7 µM (inactive); in the assay on SNB-19, 33.6 µM (inactive); in the assay with HOP-92 it was 32.5 µM (inactive).

(Values after ChEMBL document CHEMBL1201862, “PubChem BioAssay data set” (2004).)
